Here are results for 17 molecules from PMC6573034 (Nature Communications, 2019).

Data set [1] has as its target T1, SfMCT (Syntrophobacter fumaroxidans, UniProt A0LNN5).
T1 construct: expressed in transfected cells; host or cells: E. coli JA202 (MC4100 glcA::cat lldP::kan), plasmid pEXT20-SfMCT-3C-10His
T1 sequence (A0LNN5 1-412): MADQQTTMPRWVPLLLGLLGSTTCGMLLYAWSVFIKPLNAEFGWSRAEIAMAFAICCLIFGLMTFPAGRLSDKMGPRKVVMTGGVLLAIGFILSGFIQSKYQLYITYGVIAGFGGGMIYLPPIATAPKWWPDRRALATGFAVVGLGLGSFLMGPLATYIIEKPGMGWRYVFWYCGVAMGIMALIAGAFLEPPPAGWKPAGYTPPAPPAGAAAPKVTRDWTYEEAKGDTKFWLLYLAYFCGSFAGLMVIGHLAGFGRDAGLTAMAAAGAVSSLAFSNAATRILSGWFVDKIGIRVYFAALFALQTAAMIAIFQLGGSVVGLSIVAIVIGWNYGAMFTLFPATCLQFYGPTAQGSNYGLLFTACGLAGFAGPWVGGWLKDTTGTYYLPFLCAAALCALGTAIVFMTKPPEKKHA
The format is cell-based. The settings on record: for competition with [14C]L-lactate uptake (in words) / reduction of [14C]L-lactate uptake: competitor 1 mM; for Relative uptake of [14C]L-lactate (in %): WT SfMCT, competitor 1 mM final concentration, normalized to control without competitor. How it is done: (§1) The cultures were grown at 37 °C and 180 r.p.m. in an incubator shaker (Multitron, Infors HT). Protein expression was induced at OD600 ~0.5 by addition of IPTG to a final concentration of 0.25 mM. After 4 h, bacteria were pelleted (5,200 × g, 10 min, room temperature) and resuspended in uptake buffer (20 mM Bis-Tris propane-HCl (pH 6.7), 250 mM KCl) to a bacteria density of OD600 12. […] Furthermore, [3-3 H] propionic acid sodium salt ([^3H]propionate, American Radiolabeled Chemicals, specific activity 30 Ci/mmol), n-[2,3-3 H] butyric acid sodium salt ([^3H]butyrate, American Radiolabeled Chemicals, specific activity 120 Ci/mmol), and [1–14 C] pyruvic acid sodium salt ([^14C]pyruvate, specific activity 0.055 Ci/mmol American Radiolabeled Chemicals) were also used for transport experiments. […] Uptake experiments were performed in 2 ml reaction tubes (Eppendorf) at 30 °C under agitation (1,000 r.p.m., Thermomixer compact, Eppendorf). […] Bacteria were immediately pelleted by centrifugation (21,000 × g, 4 min, room temperature) and washed two times with 900 μl stop buffer. Finally, bacteria were lyzed in 50 μl 5% (w/v) sodium dodecylsulfate and transferred into a white 96-well plate (Optiplate, PerkinElmer). 150 µl of scintillation cocktail (MicroScint 40, PerkinElmer) were added before measuring each reaction for 2 min with a scintillation counter (TopCount NXT, PerkinElmer). For data analysis, the signal of the empty vector was subtracted from the transporter signal. […] Cpm values of each experiment were normalized with respect to the determined upper plateau value, i.e., the fitted upper plateau value corresponds to 100%. The arithmetic average of three independent experiments was calculated. Three independent and normalized pH-dependence curves were then averaged. For data analysis Prism6 (GraphPad Software) was used. […] Equal amounts of bacteria expressing SfMCT variants were loaded on 14% SDS/polyacrylamide gels. His-tagged transporters were detected using an anti-His5 (Qiagen, catalogue number 34660, primary antibody) at a dilution of 1:3,000 and a goat anti-mouse IgG (H + L) HRP conjugate antibody (Biorad, catalogue number 172-1011, secondary antibody) at a dilution of 1:2,500.

The target in data set [2] is T1, SfMCT. The data set is described as follows: Uptake of [14C]L-lactate and other radiolabeled monocarboxylates into SfMCT expressing E. coli JA202. The following applies: for Uptake of radioligand by SfMCT (cpm): 0.1 µCi radiolabeled monocarboxylate, SfMCT-overexpressing bacteria; for transport by SfMCT (in words): uptake experiment using radiolabeled compound. Format: cell-based. On the procedure: as §1

Data set [3] deals with vector-transformed E. coli JA202. The data set is described as follows: Uptake of radioligands into vector-transformed bacteria. The following applies: 0.1 µCi radiolabeled monocarboxylate; vector-transformed bacteria. Format: cell-based. On the procedure:
The cultures were grown at 37 °C and 180 r.p.m. in an incubator shaker (Multitron, Infors HT). Protein expression was induced at OD600 ~0.5 by addition of IPTG to a final concentration of 0.25 mM. After 4 h, bacteria were pelleted (5,200 × g, 10 min, room temperature) and resuspended in uptake buffer (20 mM Bis-Tris propane-HCl (pH 6.7), 250 mM KCl) to a bacteria density of OD600 12. […] Furthermore, [3-3 H] propionic acid sodium salt ([^3H]propionate, American Radiolabeled Chemicals, specific activity 30 Ci/mmol), n-[2,3-3 H] butyric acid sodium salt ([^3H]butyrate, American Radiolabeled Chemicals, specific activity 120 Ci/mmol), and [1–14 C] pyruvic acid sodium salt ([^14C]pyruvate, specific activity 0.055 Ci/mmol American Radiolabeled Chemicals) were also used for transport experiments. […] Uptake experiments were performed in 2 ml reaction tubes (Eppendorf) at 30 °C under agitation (1,000 r.p.m., Thermomixer compact, Eppendorf). […] Bacteria were immediately pelleted by centrifugation (21,000 × g, 4 min, room temperature) and washed two times with 900 μl stop buffer. Finally, bacteria were lyzed in 50 μl 5% (w/v) sodium dodecylsulfate and transferred into a white 96-well plate (Optiplate, PerkinElmer). 150 µl of scintillation cocktail (MicroScint 40, PerkinElmer) were added before measuring each reaction for 2 min with a scintillation counter (TopCount NXT, PerkinElmer). For data analysis, the signal of the empty vector was subtracted from the transporter signal. […] Cpm values of each experiment were normalized with respect to the determined upper plateau value, i.e., the fitted upper plateau value corresponds to 100%. The arithmetic average of three independent experiments was calculated. Three independent and normalized pH-dependence curves were then averaged. For data analysis Prism6 (GraphPad Software) was used. The expression of SfMCT variants in E. coli JA202 (MC4100 glcA::cat lldP::kan)[15] was verified by Western blotting. Equal amounts of bacteria expressing SfMCT variants were loaded on 14% SDS/polyacrylamide gels. His-tagged transporters were detected using an anti-His5 (Qiagen, catalogue number 34660, primary antibody) at a dilution of 1:3,000 and a goat anti-mouse IgG (H + L) HRP conjugate antibody (Biorad, catalogue number 172-1011, secondary antibody) at a dilution of 1:2,500.

The next data set has as its target T2, SfMCT-F335A (Syntrophobacter fumaroxidans, UniProt A0LNN5, F335A).
T2 construct: expressed in transfected cells; host or cells: E. coli JA202, pEXT20-SfMCT-3C-10His mutant plasmid
The data set is described as follows: [14C]L-lactate transport competition assay, SfMCT-F335A. The format is cell-based. The settings on record: competition by 1 mM ACAC. How it is done:
The cultures were grown at 37 °C and 180 r.p.m. in an incubator shaker (Multitron, Infors HT). Protein expression was induced at OD600 ~0.5 by addition of IPTG to a final concentration of 0.25 mM. After 4 h, bacteria were pelleted (5,200 × g, 10 min, room temperature) and resuspended in uptake buffer (20 mM Bis-Tris propane-HCl (pH 6.7), 250 mM KCl) to a bacteria density of OD600 12. […] Furthermore, [3-3 H] propionic acid sodium salt ([^3H]propionate, American Radiolabeled Chemicals, specific activity 30 Ci/mmol), n-[2,3-3 H] butyric acid sodium salt ([^3H]butyrate, American Radiolabeled Chemicals, specific activity 120 Ci/mmol), and [1–14 C] pyruvic acid sodium salt ([^14C]pyruvate, specific activity 0.055 Ci/mmol American Radiolabeled Chemicals) were also used for transport experiments. […] Cpm values of each experiment were normalized with respect to the determined upper plateau value, i.e., the fitted upper plateau value corresponds to 100%. The arithmetic average of three independent experiments was calculated. […] His-tagged transporters were detected using an anti-His5 (Qiagen, catalogue number 34660, primary antibody) at a dilution of 1:3,000 and a goat anti-mouse IgG (H + L) HRP conjugate antibody (Biorad, catalogue number 172-1011, secondary antibody) at a dilution of 1:2,500.

Substrate in data set [4]: C[C@H](O)C(=O)O
The experiment in a line: cells, lysate or membranes. The format is cell-based, Syntrophobacter fumaroxidans. The following applies: other: SfMCT-mediated [14C]L-lactate uptake; average of three independent saturation experiments.

“Also recorded” adds a separate entry of the source. Read-outs that look alike come from different tables or passages of the source.

T2 sequence (A0LNN5 whole entry F335A): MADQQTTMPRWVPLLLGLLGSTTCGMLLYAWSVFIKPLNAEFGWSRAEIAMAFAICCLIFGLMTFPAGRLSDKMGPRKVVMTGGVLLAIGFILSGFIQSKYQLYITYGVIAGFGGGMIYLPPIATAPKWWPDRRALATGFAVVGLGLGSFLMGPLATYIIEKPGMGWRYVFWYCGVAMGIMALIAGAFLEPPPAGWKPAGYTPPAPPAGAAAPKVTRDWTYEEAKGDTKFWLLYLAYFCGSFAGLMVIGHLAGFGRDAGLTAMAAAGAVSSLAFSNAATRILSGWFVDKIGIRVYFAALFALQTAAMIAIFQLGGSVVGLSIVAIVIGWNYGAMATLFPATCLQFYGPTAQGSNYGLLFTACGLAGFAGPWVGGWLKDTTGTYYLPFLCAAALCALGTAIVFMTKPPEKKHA

Take `C[C@@H](N)C(=O)O` [D-alanine]: at SfMCT [1], the “competition with [14C]L-lactate uptake (in words)” value (from here on “competition”) is listed as “absence of any competition”.
For the molecule `O=C(O)CC(=O)O` [malonate], at SfMCT [1], the “Relative uptake of [14C]L-lactate (in %)” value is given as 91.3566% and the “reduction of [14C]L-lactate uptake” value is reported as 5–14%.
Regarding `CC(=O)O` [acetate], the “Relative uptake of [14C]L-lactate (in %)” value on SfMCT [1] was found to be 90.2435%.
Take `CCC(=O)O` [propionate]: on SfMCT [2], the “Uptake of radioligand by SfMCT (cpm)” value amounted to 90.6667 cpm and the “transport by SfMCT (in words)” value is listed as “not transported; also recorded: without being transported”. The “Uptake of radioligand by vector (cpm)” value in data set [3] worked out at 198.333 cpm. Also, on SfMCT [1], the “Relative uptake of [14C]L-lactate (in %)” value is given as 58.2752% and the “competition” value is listed as “significantly reduced”.
Regarding `CCCC(=O)O` [butyrate], on SfMCT [2], the “Uptake of radioligand by SfMCT (cpm)” value was 160.333 cpm and the “transport by SfMCT (in words)” value was “not transported; also recorded: without being transported”. In data set [3], the “Uptake of radioligand by vector (cpm)” value turned out to be 197.333 cpm. Moreover, the “competition” value at SfMCT [1] is given as “significantly reduced”.
For the molecule `C[C@@H](O)CC(=O)O` [3-HBA, (R)-3-hydroxybutyrate], at SfMCT [1], the “Relative uptake of [14C]L-lactate (in %)” value was 93.0096% and the “reduction of [14C]L-lactate uptake” value is given as 5–14%.
On to `CC(=O)CC(=O)O` [ACAC, acetoacetate], for which the “Relative uptake of [14C]L-lactate (in %)” value on SfMCT [1] worked out at 86.3974%; at SfMCT [1] (listed as acetoacetate) it was 86%; on SfMCT-F335A it was 43.19%; at SfMCT-F335A (listed as acetoacetate), 43%. The “reduction of [14C]L-lactate uptake” value at SfMCT [1] was 5–14%.
`O=C(O)CCC(=O)O` [succinate]: the “Relative uptake of [14C]L-lactate (in %)” value on SfMCT [1] was 57.9601%.
Regarding `O=C(O)C(=O)O` [oxalate], at SfMCT [1], the “Relative uptake of [14C]L-lactate (in %)” value worked out at 95.2988% and the “reduction of [14C]L-lactate uptake” value is recorded as 5–14%.
In the case of `O=C(O)/C=C/C(=O)O` [fumarate], the “Relative uptake of [14C]L-lactate (in %)” value on SfMCT [1] turned out to be 61.3393%.
On to `CC(C)[C@@H]1NC(=O)[C@H](C)OC(=O)[C@@H](C(C)C)NC(=O)[C@@H](C(C)C)OC(=O)[C@H](C(C)C)NC(=O)[C@H](C)OC(=O)[C@@H](C(C)C)NC(=O)[C@@H](C(C)C)OC(=O)[C@H](C(C)C)NC(=O)[C@H](C)OC(=O)[C@@H](C(C)C)NC(=O)[C@@H](C(C)C)OC1=O` [valinomycin, reference compound], for which the “effect on transport of [14C]L-lactate (in words)” value at SfMCT [1] (20 µM valinomycin) is listed as “no effect”.
`O=CO` [formate]: the “Relative uptake of [14C]L-lactate (in %)” value on SfMCT [1] was found to be 96.2179%.
On to `O=C(O)CC(O)(CC(=O)O)C(=O)O` [citrate], for which the “reduction of [14C]L-lactate uptake” value on SfMCT [1] is 5–14%.
As for `C[C@H](N)C(=O)O` [L-alanine], the “competition” value on SfMCT [1] is reported as “absence of any competition”.
`N#CC(C#N)=NNc1cccc(Cl)c1` [CCCP, carbonyl cyanide 3-chlorophenylhydrazone, reference compound]: the “effect on uptake of [14C]L-lactate (in words)” value at SfMCT [1] (20 µM CCCP) was “completely abolished”.
Turning to `CC(=O)C(=O)O` [pyruvate], at SfMCT [2], the “Uptake of radioligand by SfMCT (cpm)” value came to 2342.67 cpm and the “transport by SfMCT (in words)” value is “not transported; also recorded: does not transport”. Also, the “Uptake of radioligand by vector (cpm)” value in data set [3] is 2551.22 cpm.

B1: SfMCT (Syntrophobacter fumaroxidans MPOB) (protein)
chain: MADQQTTMPRWVPLLLGLLGSTTCGMLLYAWSVFIKPLNAEFGWSRAEIAMAFAICCLIFGLMTFPAGRLSDKMGPRKVVMTGGVLLAIGFILSGFIQSKYQLYITYGVIAGFGGGMIYLPPIATAPKWWPDRRALATGFAVVGLGLGSFLMGPLATYIIEKPGMGWRYVFWYCGVAMGIMALIAGAFLEPPPAGWKPAGYTPPAPPAGAAAPKVTRDWTYEEAKGDTKFWLLYLAYFCGSFAGLMVIGHLAGFGRDAGLTAMAAAGAVSSLAFSNAATRILSGWFVDKIGIRVYFAALFALQTAAMIAIFQLGGSVVGLSIVAIVIGWNYGAMFTLFPATCLQFYGPTAQGSNYGLLFTACGLAGFAGPWVGGWLKDTTGTYYLPFLCAAALCALGTAIVFMTKPPEKKHA
notes: expressed in transfected cells; host or cells: E. coli JA202 (MC4100 glcA::cat lldP::kan), plasmid pEXT20-SfMCT-3C-10His
For the molecule B1, the Michaelis constant (Km) in data set [4] is 233 ± 22 µM.

In general, Km refers to the substrate concentration at which the rate is half of its maximum.
